Laboratory results from patent US20230167073A1 (Teijin Pharma Limited, priority 2020, published 2023).

Target: T1, Human TRPC6 (Homo sapiens, UniProt Q9Y210)
T1 construct: expressed in transfected cells
T1 sequence (Q9Y210 1-931): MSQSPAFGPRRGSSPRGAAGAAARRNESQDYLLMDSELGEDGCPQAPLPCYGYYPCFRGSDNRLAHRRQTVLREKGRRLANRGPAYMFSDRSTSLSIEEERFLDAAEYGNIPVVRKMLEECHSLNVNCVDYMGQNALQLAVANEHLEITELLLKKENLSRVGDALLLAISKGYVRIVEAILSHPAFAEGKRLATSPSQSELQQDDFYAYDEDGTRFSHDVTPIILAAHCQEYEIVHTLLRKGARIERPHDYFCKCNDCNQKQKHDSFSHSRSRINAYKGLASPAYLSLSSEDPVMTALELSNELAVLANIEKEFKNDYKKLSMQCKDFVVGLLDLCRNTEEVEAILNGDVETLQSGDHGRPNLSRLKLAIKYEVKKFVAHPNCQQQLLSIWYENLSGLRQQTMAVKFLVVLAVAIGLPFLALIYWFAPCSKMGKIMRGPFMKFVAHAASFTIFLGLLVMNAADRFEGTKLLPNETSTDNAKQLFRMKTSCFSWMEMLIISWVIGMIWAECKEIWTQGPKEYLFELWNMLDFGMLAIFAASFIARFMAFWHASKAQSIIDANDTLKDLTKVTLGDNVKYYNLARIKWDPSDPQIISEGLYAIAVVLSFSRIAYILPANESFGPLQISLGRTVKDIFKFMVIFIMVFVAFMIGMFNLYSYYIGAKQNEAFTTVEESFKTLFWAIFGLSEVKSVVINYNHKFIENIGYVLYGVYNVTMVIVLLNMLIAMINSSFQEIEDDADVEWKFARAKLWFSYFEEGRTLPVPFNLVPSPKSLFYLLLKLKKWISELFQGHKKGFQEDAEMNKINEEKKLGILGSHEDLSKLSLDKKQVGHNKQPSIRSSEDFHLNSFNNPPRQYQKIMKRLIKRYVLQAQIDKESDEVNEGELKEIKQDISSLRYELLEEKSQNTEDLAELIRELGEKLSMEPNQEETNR
Test: Evaluation of TRPC6 channel inhibitory activity (1), FLIPR Calcium 5 Assay Kit, OAG stimulation (Compound Nos. 1-1293)
Type: cell-based
Conditions: Human TRPC6 stably-expressing cells, OAG 30 μM, FLIPR Calcium 5 Assay Kit; read-out: Inhibitory activity (pIC50 class) (converted)
Procedure, shortened: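 The FLIPR signal is maximum fluorescence after 30 μM OAG minus minimum before compound, measured in a human TRPC6 stable line loaded with Calcium 5 dye. Compounds were preincubated 20 min. pIC50 came from four-parameter logistic fitting of inhibition rates and is given as symbol ranges.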

Question: For CC(C)COCc1cn(Cc2cc(C#N)ccc2-c2ccc(CCN)cc2)cn1 [compound 1119, 4-[4-(2-aminoethyl)phenyl]-3-[[4-(2-methylpropoxymethyl)imidazol-1-yl]methyl]benzonitrile], which IC50 is on record?
Answer: 10 to 1000 nM

Question: Which IC50 does the source give for Cc1nc(-c2ccccc2)cn1Cc1cc(C#N)ccc1-c1ccc(CCN)cc1 [compound 1120, 4-[4-(2-aminoethyl)phenyl]-3-[(2-methyl-4-phenylimidazol-1-yl)methyl]benzonitrile] here?
Answer: < 10 nM

Question: Which IC50 does the source give for CCCc1nccn1Cc1cc(C#N)ccc1-c1ccc(CCN)cc1 [compound 1121, 4-[4-(2-aminoethyl)phenyl]-3-[(2-propylimidazol-1-yl)methyl]benzonitrile] here?
Answer: > 1000 nM

Question: For N#Cc1ccc(-c2ccc(CCN)cc2)c(Cn2cnc(-n3ccnn3)c2)c1 [compound 1122, 4-[4-(2-aminoethyl)phenyl]-3-[[4-(triazol-1-yl)imidazol-1-yl]methyl]benzonitrile], which IC50 is on record?
Answer: > 1000 nM

Question: With N#Cc1ccc(-c2ccc(CCN)cc2)c(Cn2cnc(-n3cnnn3)c2)c1 [compound 1123, 4-[4-(2-aminoethyl)phenyl]-3-[[4-(tetrazol-1-yl)imidazol-1-yl]methyl]benzonitrile] as the compound, how does the IC50 read?
Answer: > 1000 nM

Question: Which IC50 does the source give for N#Cc1ccc(-c2ccc(CCN)cc2)c(Cn2cnc(-c3ccc(C(F)(F)F)cc3)c2)c1 [compound 1124, 4-[4-(2-aminoethyl)phenyl]-3-[[4-[4-(trifluoromethyl)phenyl]imidazol-1-yl]methyl]benzonitrile] here?
Answer: > 1000 nM

Question: Which IC50 does the source give for Cc1nc(-c2ccc(C(F)(F)F)cc2)cn1Cc1cc(C#N)ccc1-c1ccc(CCN)cc1 [compound 1125, 4-[4-(2-aminoethyl)phenyl]-3-[[2-methyl-4-[4-(trifluoromethyl)phenyl]imidazol-1-yl]methyl]benzonitrile] here?
Answer: > 1000 nM

Question: For Cc1nc(COC(C)C)cn1Cc1cc(C#N)ccc1-c1ccc(CCN)cc1 [compound 1126, 4-[4-(2-aminoethyl)phenyl]-3-[[2-methyl-4-(propan-2-yloxymethyl)imidazol-1-yl]methyl]benzonitrile], which IC50 is on record?
Answer: > 1000 nM

Question: N#Cc1ccc(-n2cc(C(O)CN)cn2)c(Cn2cnc(-c3ccccc3)c2)c1 (centres unmarked) [compound 1127, 4-[4-(2-amino-1-hydroxyethyl)pyrazol-1-yl]-3-[(4-phenylimidazol-1 yl)methyl]benzonitrile] was tested. Which IC50 did it give?
Answer: > 1000 nM

Question: For Cc1nc(-c2ccccc2)cn1Cc1cc(C#N)ccc1-n1cc(C(O)CN)cn1 (centres unmarked) [compound 1128, 4-[4-(2-amino-1-hydroxyethyl)pyrazol-1-yl]-3-[(2-methyl-4-phenylimidazol-1-yl)methyl]benzonitrile], which IC50 is on record?
Answer: > 1000 nM

Question: N#Cc1ccc(-c2ccc(C(O)CN)cc2)c(Cn2cnc(-c3ccccc3)c2)c1 (centres unmarked) [compound 1129, 4-[4-(2-amino-1-hydroxyethyl)phenyl]-3-[(4-phenylimidazol-1-yl)methyl]benzonitrile] was tested. Which IC50 did it give?
Answer: < 10 nM

Question: For Cc1nc(-c2ccccc2)cn1Cc1cc(C#N)ccc1-c1ccc(C(O)CN)cc1 (centres unmarked) [compound 1130, 4-[4-(2-amino-1-hydroxyethyl)phenyl]-3-[(2-methyl-4-phenylimidazol-1-yl)methyl]benzonitrile], which IC50 is on record?
Answer: < 10 nM

Question: Which IC50 does the source give for N#Cc1ccc(-c2ccc(CCN)nc2)c(Cn2cnc(-c3ccccc3)c2)c1 [compound 1132, 4-[6-(2-aminoethyl)pyridin-3-yl]-3-[(4-phenylimidazol-1-yl)methyl]benzonitrile] here?
Answer: 10 to 1000 nM

Question: How did the IC50 turn out when N#Cc1ccc(-c2ccc(C(O)CN)cn2)c(Cn2cncc2-c2ccccc2)c1 (centres unmarked) [compound 1133, 4-[5-(2-amino-1-hydroxyethyl)pyridin-2-yl]-3-[(5-phenylimidazol-1-yl)methyl]benzonitrile] was run?
Answer: > 1000 nM

Question: How did the IC50 turn out when N#Cc1ccc(-c2ncc(CCN)cn2)c(Cn2cncc2-c2ccccc2)c1 [compound 1134, 4-[5-(2-aminoethyl)pyrimidin-2-yl]-3-[(5-phenylimidazol-1-yl)methyl]benzonitrile] was run?
Answer: > 1000 nM

Question: Which IC50 does the source give for N#Cc1ccc(-c2ncc(CCN)cn2)c(Cn2cnc(-c3ccccc3)c2)c1 [compound 1135, 4-[5-(2-aminoethyl)pyrimidin-2-yl]-3-[(4-phenylimidazol-1-yl)methyl]benzonitrile] here?
Answer: < 10 nM

Question: Which IC50 does the source give for N#Cc1ccc(-c2ccc([C@@H](O)CN)cn2)c(Cn2cncc2-c2ccccc2)c1 [compound 1136, 4-[5-[(1R)-2-amino-1-hydroxyethyl]pyridin-2-yl]-3-[(5-phenylimidazol-1-yl)methyl]benzonitrile] here?
Answer: > 1000 nM

Question: With Cc1nc(-c2ccccc2)cn1Cc1cc(C#N)ccc1-c1ncc(CCN)cn1 [compound 1137, 4-[5-(2-aminoethyl)pyrimidin-2-yl]-3-[(2-methyl-4-phenylimidazol-1-yl)methyl]benzonitrile] as the compound, how does the IC50 read?
Answer: < 10 nM

Question: N#Cc1ccc(-c2ccc([C@@H](O)CN)cn2)c(Cn2cnc(-c3ccccc3)c2)c1 [compound 1138, 4-[5-[(1R)-2-amino-1-hydroxyethyl]pyridin-2-yl]-3-[(4-phenylimidazol-1-yl)methyl]benzonitrile] was tested. Which IC50 did it give?
Answer: 10 to 1000 nM

Question: Which IC50 does the source give for Cc1nc(-c2ccccc2)cn1Cc1cc(C#N)ccc1-c1ccc(C(O)CN)cn1 (centres unmarked) [compound 1139, 4-[5-(2-amino-1-hydroxyethyl)pyridin-2-yl]-3-[(2-methyl-4-phenylimidazol-1-yl)methyl]benzonitrile] here?
Answer: 10 to 1000 nM

Question: Which IC50 does the source give for COC(C)c1cn(Cc2cc(C#N)ccc2-c2ccc(CCN)cn2)c(C)n1 (centres unmarked) [compound 1140, 4-[5-(2-aminoethyl)pyridin-2-yl]-3-[[4-(1-methoxyethyl)-2-methylimidazol-1-yl]methyl]benzonitrile] here?
Answer: 10 to 1000 nM

Question: Which IC50 does the source give for COC(C)c1cn(Cc2cc(C#N)ccc2-c2ncc(CCN)cn2)c(C)n1 (centres unmarked) [compound 1141, 4-[5-(2-aminoethyl)pyrimidin-2-yl]-3-[[4-(1-methoxyethyl)-2-methylimidazol-1-yl]methyl]benzonitrile] here?
Answer: 10 to 1000 nM

Question: With CCC(OC)c1cn(Cc2cc(C#N)ccc2-c2ncc(CCN)cn2)c(C)n1 (centres unmarked) [compound 1142, 4-[5-(2-aminoethyl)pyrimidin-2-yl]-3-[[4-(1-methoxypropyl)-2-methylimidazol-1-yl]methyl]benzonitrile] as the compound, how does the IC50 read?
Answer: 10 to 1000 nM

Question: With N#Cc1ccc(-c2ccc(CCN)cn2)c(Cn2cnc(-c3ccccc3F)c2)c1 [compound 1143, 4-[5-(2-aminoethyl)pyridin-2-yl]-3-[[4-(2-fluorophenyl)imidazol-1-yl]methyl]benzonitrile] as the compound, how does the IC50 read?
Answer: < 10 nM

Question: N#Cc1ccc(-c2ccc(CCN)cn2)c(Cn2cnc(-c3ccccc3Cl)c2)c1 [compound 1144, 4-[5-(2-aminoethyl)pyridin-2-yl]-3-[[4-(2-chlorophenyl)imidazol-1-yl]methyl]benzonitrile] was tested. Which IC50 did it give?
Answer: < 10 nM

Question: How did the IC50 turn out when Cc1ccccc1-c1cn(Cc2cc(C#N)ccc2-c2ccc(CCN)cn2)cn1 [compound 1145, 4-[5-(2-aminoethyl)pyridin-2-yl]-3-[[4-(2-methylphenyl)imidazol-1-yl]methyl]benzonitrile] was run?
Answer: < 10 nM

Question: For Cc1ccc(-c2cn(Cc3cc(C#N)ccc3-c3ccc(CCN)cn3)cn2)cc1 [compound 1146, 4-[5-(2-aminoethyl)pyridin-2-yl]-3-[[4-(4-methylphenyl)imidazol-1-yl]methyl]benzonitrile], which IC50 is on record?
Answer: 10 to 1000 nM

Question: For N#Cc1ccc(-c2ccc(CCN)cn2)c(Cn2cnc(-c3ccc(F)cc3)c2)c1 [compound 1147, 4-[5-(2-aminoethyl)pyridin-2-yl]-3-[[4-(4-fluorophenyl)imidazol-1-yl]methyl]benzonitrile], which IC50 is on record?
Answer: < 10 nM

Question: Cc1cccc(-c2cn(Cc3cc(C#N)ccc3-c3ccc(CCN)cn3)cn2)c1 [compound 1148, 4-[5-(2-aminoethyl)pyridin-2-yl]-3-[[4-(3-methylphenyl)imidazol-1-yl]methyl]benzonitrile] was tested. Which IC50 did it give?
Answer: < 10 nM

Question: Which IC50 does the source give for N#Cc1ccc(-c2ccc(CCN)cn2)c(Cn2cnc(-c3cccc(F)c3)c2)c1 [compound 1149, 4-[5-(2-aminoethyl)pyridin-2-yl]-3-[[4-(3-fluorophenyl)imidazol-1-yl]methyl]benzonitrile] here?
Answer: < 10 nM

Question: Cc1nc(-c2ccccc2)cn1Cc1cc(C#N)ccc1-c1ccc(CCN)cn1 [compound 1150, 4-[5-(2-aminoethyl)pyridin-2-yl]-3-[(2-methyl-4-phenylimidazol-1-yl)methyl]benzonitrile] was tested. Which IC50 did it give?
Answer: < 10 nM

Question: Which IC50 does the source give for Cc1ccccc1-c1cn(Cc2cc(C#N)ccc2-c2ccc(CCN)cn2)c(C)n1 [compound 1151, 4-[5-(2-aminoethyl)pyridin-2-yl]-3-[[2-methyl-4-(2-methylphenyl)imidazol-1-yl]methyl]benzonitrile] here?
Answer: < 10 nM
